Measured values reported in the supplement of paper PMC4932681.

Key:
BT-474 Tam1 [1] = assay: drug sensitivity score (DSS) (DSS (dimensionless)); higher = more sensitive; extreme values may be limits of the assay; settings: 4-OH-tamoxifen in medium 1 µM; 72 h
Method in brief: (§1)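 After seeding into 384-well plates with library drugs at five concentrations spanning a 10 000-fold range, breast cancer cell lines and their resistant derivatives were incubated 72 h at 37 °C. Resistant lines received medium with 1 μM of the selecting drug. CellTiter-Glo signal was read on a PHERAstar and scaled to vehicle-only and positive controls. Drug sensitivity score, relative IC50 (the curve midpoint) and top-dose inhibition came from logistic fits run in the Breeze pipeline.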

BT-474 Tam2 [2] = assay: as above; settings: 4-OH-tamoxifen in medium 1 µM; 72 h
Method in brief: as §1

BT-474 [3] = assay: as above; settings: 72 h
Method in brief: as §1

MCF-7 Tam1 [4] = assay: as above; settings: 4-OH-tamoxifen in medium 1 µM; 72 h
Method in brief: as §1

MCF-7 [5] = assay: as above; settings: 72 h
Method in brief: as §1

T-47D Tam1 [6] = assay: as above; settings: 4-OH-tamoxifen in medium 1 µM; 72 h
Method in brief: as §1

T-47D Tam2 [7] = assay: as above; settings: 4-OH-tamoxifen in medium 1 µM; 72 h
Method in brief: as §1

T-47D [8] = assay: as above; settings: 72 h
Method in brief: as §1

ZR-75-1 Tam1 [9] = assay: as above; settings: 4-OH-tamoxifen in medium 1 µM; 72 h
Method in brief: as §1

ZR-75-1 Tam2 [10] = assay: as above; settings: 4-OH-tamoxifen in medium 1 µM; 72 h
Method in brief: as §1

ZR-75-1 [11] = assay: as above; settings: 72 h
Method in brief: as §1

BT-474 Tam1 [12] = assay: relative IC50 (midpoint of fitted logistic curve, plateau may be below 50% inhibition; CellTiter-Glo viability); higher = less potent; settings: 4-OH-tamoxifen in medium 1 µM; 72 h
Method in brief: as §1

BT-474 Tam2 [13] = assay: as above; settings: 4-OH-tamoxifen in medium 1 µM; 72 h
Method in brief: as §1

BT-474 [14] = assay: as above; settings: 72 h
Method in brief: as §1

MCF-7 [15] = assay: as above; settings: 72 h
Method in brief: as §1

T-47D Tam1 [16] = assay: as above; settings: 4-OH-tamoxifen in medium 1 µM; 72 h
Method in brief: as §1

T-47D Tam2 [17] = assay: as above; settings: 4-OH-tamoxifen in medium 1 µM; 72 h
Method in brief: as §1

T-47D [18] = assay: as above; settings: 72 h
Method in brief: as §1

ZR-75-1 Tam1 [19] = assay: as above; settings: 4-OH-tamoxifen in medium 1 µM; 72 h
Method in brief: as §1

ZR-75-1 Tam2 [20] = assay: as above; settings: 4-OH-tamoxifen in medium 1 µM; 72 h
Method in brief: as §1

ZR-75-1 [21] = assay: as above; settings: 72 h
Method in brief: as §1

MCF-7 Tam1 [22] = assay: as above; settings: 4-OH-tamoxifen in medium 1 µM; 72 h
Method in brief: as §1

Row | relative IC50 (BT-474 Tam1 [12]) [nM] | relative IC50 (BT-474 Tam2 [13]) [nM] | relative IC50 (BT-474 [14]; 4-OH-tamoxifen in medium 0 µM) [nM] | relative IC50 (BT-474 [14]; 4-OH-tamoxifen in medium 1 µM) [nM] | relative IC50 (MCF-7 [15]; 4-OH-tamoxifen in medium 0 µM) [nM] | relative IC50 (MCF-7 [15]; 4-OH-tamoxifen in medium 1 µM) [nM] | relative IC50 (T-47D Tam1 [16]) [nM] | relative IC50 (T-47D Tam2 [17]) [nM] | relative IC50 (T-47D [18]; 4-OH-tamoxifen in medium 0 µM) [nM] | relative IC50 (MCF-7 Tam1 [22]) [nM] | relative IC50 (T-47D [18]; 4-OH-tamoxifen in medium 1 µM) [nM] | SMILES | drug sensitivity score (BT-474 Tam1 [1]) | drug sensitivity score (BT-474 Tam2 [2]) | drug sensitivity score (BT-474 [3]; 4-OH-tamoxifen in medium 0 µM) | drug sensitivity score (BT-474 [3]; 4-OH-tamoxifen in medium 1 µM) | drug sensitivity score (MCF-7 Tam1 [4]) | drug sensitivity score (MCF-7 [5]; 4-OH-tamoxifen in medium 0 µM) | drug sensitivity score (MCF-7 [5]; 4-OH-tamoxifen in medium 1 µM) | drug sensitivity score (T-47D Tam1 [6]) | drug sensitivity score (T-47D Tam2 [7]) | drug sensitivity score (T-47D [8]; 4-OH-tamoxifen in medium 0 µM) | drug sensitivity score (T-47D [8]; 4-OH-tamoxifen in medium 1 µM) | drug sensitivity score (ZR-75-1 Tam1 [9]) | drug sensitivity score (ZR-75-1 Tam2 [10]) | drug sensitivity score (ZR-75-1 [11]; 4-OH-tamoxifen in medium 0 µM) | drug sensitivity score (ZR-75-1 [11]; 4-OH-tamoxifen in medium 1 µM) | relative IC50 (ZR-75-1 Tam1 [19]) [nM] | relative IC50 (ZR-75-1 Tam2 [20]) [nM] | relative IC50 (ZR-75-1 [21]; 4-OH-tamoxifen in medium 0 µM) [nM] | relative IC50 (ZR-75-1 [21]; 4-OH-tamoxifen in medium 1 µM) [nM]
1 | 958 | 870 | 547 | 354 | 363 | 554 | 1260 | 1180 | 795 |  | 857 | O=C(/C=C/c1cccc(S(=O)(=O)Nc2ccccc2)c1)NO [Belinostat  (PXD101)] | 10.5 | 9.18 | 12.8 | 16.8 | 2.18 | 14.7 | 12.7 | 9.66 | 7.43 | 12 | 11.9 | 4.54 | 6.02 | 4.2 | 3.84 | 964 | 833 | 791 | 1200
2 | 17.1 | 22 | 19.7 | 10.6 | 28.7 | 35.2 | 47.5 | 87.6 | 44.7 |  | 40.8 | Cc1[nH]c2ccccc2c1CCNCc1ccc(/C=C/C(=O)NO)cc1 [Panobinostat] | 19.8 | 17.2 | 17.8 | 23.3 | 1.73 | 16.3 | 15.2 | 12.7 | 8.64 | 15.5 | 15.9 | 5.02 | 7.47 | 8.15 | 4.19 | 64.7 | 49.6 | 32.7 | 81.7

Second part, the compound before the results:

Row | SMILES | relative IC50 (BT-474 Tam1 [12]) [nM] | relative IC50 (BT-474 Tam2 [13]) [nM] | relative IC50 (BT-474 [14]; 4-OH-tamoxifen in medium 0 µM) [nM] | relative IC50 (BT-474 [14]; 4-OH-tamoxifen in medium 1 µM) [nM] | relative IC50 (MCF-7 [15]; 4-OH-tamoxifen in medium 0 µM) [nM] | relative IC50 (MCF-7 [15]; 4-OH-tamoxifen in medium 1 µM) [nM] | relative IC50 (T-47D Tam1 [16]) [nM] | relative IC50 (T-47D Tam2 [17]) [nM] | relative IC50 (T-47D [18]; 4-OH-tamoxifen in medium 0 µM) [nM] | relative IC50 (MCF-7 Tam1 [22]) [nM] | relative IC50 (T-47D [18]; 4-OH-tamoxifen in medium 1 µM) [nM] | drug sensitivity score (BT-474 Tam1 [1]) | drug sensitivity score (BT-474 Tam2 [2]) | drug sensitivity score (BT-474 [3]; 4-OH-tamoxifen in medium 0 µM) | drug sensitivity score (BT-474 [3]; 4-OH-tamoxifen in medium 1 µM) | drug sensitivity score (MCF-7 Tam1 [4]) | drug sensitivity score (MCF-7 [5]; 4-OH-tamoxifen in medium 0 µM) | drug sensitivity score (MCF-7 [5]; 4-OH-tamoxifen in medium 1 µM) | drug sensitivity score (T-47D Tam1 [6]) | drug sensitivity score (T-47D Tam2 [7]) | drug sensitivity score (T-47D [8]; 4-OH-tamoxifen in medium 0 µM) | drug sensitivity score (T-47D [8]; 4-OH-tamoxifen in medium 1 µM) | drug sensitivity score (ZR-75-1 Tam1 [9]) | drug sensitivity score (ZR-75-1 Tam2 [10]) | drug sensitivity score (ZR-75-1 [11]; 4-OH-tamoxifen in medium 0 µM) | drug sensitivity score (ZR-75-1 [11]; 4-OH-tamoxifen in medium 1 µM) | relative IC50 (ZR-75-1 Tam1 [19]) [nM] | relative IC50 (ZR-75-1 Tam2 [20]) [nM] | relative IC50 (ZR-75-1 [21]; 4-OH-tamoxifen in medium 0 µM) [nM] | relative IC50 (ZR-75-1 [21]; 4-OH-tamoxifen in medium 1 µM) [nM]
3 | C=CC(=O)Nc1cc2c(Nc3ccc(F)c(Cl)c3)ncnc2cc1OCCCN1CCOCC1 [Canertinib] | 11.7 | 18.6 | 31.3 | 12.4 | 1290 | 1640 | 513 | 1580 | 1230 |  |  | 34.2 | 31.6 | 24.8 | 33.6 | 1.4 | 6.68 | 6.46 | 6.06 | 5.77 | 3.92 | 0.761 | 2.99 | 2.58 | 3 | 3.11 | 1740 | 2780 | 2090 | 1510
4 | N#Cc1ccc(COC[C@H]2O[C@@H](n3c(NCc4ccc(Cl)c(Cl)c4)nc4c(N)ncnc43)[C@H](O)[C@@H]2O)cc1 | 1920 | 1730 |  | 2750 | 4190 | 3250 | 1170 | 2000 | 3590 |  |  | 3.95 | 3.17 | 0.615 | 4.11 | 0.584 | 1.74 | 2.54 | 5.15 | 2.46 | 1.88 | 1.02 | 2.54 | 2.56 | 4.24 | 4.03 | 3000 | 3350 | 2070 | 1870
5 | CC(=O)O[C@H]1C(=O)[C@@]2(C)[C@H]([C@H](OC(=O)c3ccccc3)[C@]3(O)C[C@H](OC(=O)[C@H](O)[C@@H](NC(=O)c4ccccc4)c4ccccc4)C(C)=C1C3(C)C)[C@]1(OC(C)=O)CO[C@@H]1C[C@@H]2O [Paclitaxel] | 32.3 |  | 8.49 | 5.9 |  | 16.9 |  | 10.9 | 5.91 | > 1000 |  | 4.68 | 3.11 | 11.5 | 15.5 | 0 | 7.01 | 7.14 | 7.9 | 7.33 | 13 | 1.38 | 0 | 0 | 6.96 | 0 | > 1000 | > 1000 |  | > 1000
6 | Cn1cc(CNCC2CCN(c3ncc(C(=O)NO)cn3)CC2)c2ccccc21 | 14.5 | 14.9 | 21.6 | 8.56 | 25.4 | 34.7 | 43.9 | 91.3 | 43.5 |  | 13.2 | 21.3 | 20.9 | 17.3 | 24.5 | 1.39 | 16.4 | 15.2 | 13.5 | 8.78 | 15.4 | 21.5 | 10 | 9.02 | 9.45 | 5.44 | 6.19 | 20.3 | 17.8 | 30
7 | CCNC(=O)c1noc(-c2cc(C(C)C)c(O)cc2O)c1-c1ccc(CN2CCOCC2)cc1 [NVP-AUY922] | 3.5 | 10.2 | 4.12 | 2.25 | 6.59 | 41.2 | 37.2 | 10.4 | 19.9 |  | 8.93 | 22.9 | 16.8 | 14.7 | 26.5 | 3.94 | 16.7 | 7.64 | 8.46 | 13.5 | 14.3 | 14.1 | 6.14 | 9.04 | 6.75 | 7.06 | 22.5 | 21.1 | 18.6 | 40.4
